From patent US7244765B2, “Guanylhydrazone salts, compositions, processes of making and methods of using” (Cytokine Pharmasciences, Inc, priority 2004, dated 2007)
Where a name gives a salt, the structure may show the parent alone.

Test: Solubility test of Semapimod salts (sonication at room temperature, filtration, HPLC against a Semapimod-4 HCl/4 H2O standard)
Assay type: physicochemical
Settings: for Solubility in H2O: sonicated at room temperature, Nylon syringe filter, HPLC vs standard from Semapimod-4 HCl/4 H2O
Protocol: The product isolated as Semapimod-2 HCl/4 H2O was added to ca. 2 mL of solvents (H2O, 5% Dextrose solution, PBS, and 0.9% NaCl solution), and was sonicated at room temperature until the solid suspended in the solution. The mixture was passed through a Nylon syringe filter, and then 0.5 mL of the filtrate was diluted with MeOH before injection into the HPLC. […] For reference purpose, the solubility of Semapimod-4 HCl/4 H2O was determined according to the previous procedure.
The Semapimod salts mentioned in the above table were subjected to solubility tests using the same procedure outlined above.

| Solubility in 5% Dextrose (5% Dextrose solution, room temperature, HPLC vs standard) [mg/mL] | Solubility in H2O | Structure (SMILES) |
| --- | --- | --- |
| 13.44 | ca. 9.54 mg/mL | CC(=NNC(=N)N)c1cc(NC(=O)CCCCCCCCC(=O)Nc2cc(C(C)=NNC(=N)N)cc(C(C)=NNC(=N)N)c2)cc(C(C)=NNC(=N)N)c1.Cl.Cl.O.O.O.O [Semapimod-2 HCl/4 H2O] |
| – | 14.15 mg/mL | C/C(=N\NC(=N)N)c1cc(NC(=O)CCCCCCCCC(=O)Nc2cc(/C(C)=N/NC(=N)N)cc(/C(C)=N/NC(=N)N)c2)cc(/C(C)=N/NC(=N)N)c1 [Semapimod-4 HCl/4 H2O, reference compound] |
